Results as given in the NIST ThermoML archive (doi:10.1016/j.jct.2009.11.014).
± gives the expanded uncertainty stated by the source.

Conditions: Liquid; for mass density: vibrating tube; for viscosity: Stony Brook Scientific falling needle HPHTV-100 viscometer

Work on `CCCCCCn1cc[n+](C)c1.F[B-](F)(F)F` [1-hexyl-3-methylimidazolium tetrafluoroborate] yielded a mass density (283.15 K, 100 kPa) of 1155.97 ± 0.97 kg/m3, a mass density (283.15 K, 2000 kPa) of 1156.84 ± 0.96 kg/m3 and a mass density (283.15 K, 4000 kPa) of 1157.76 ± 0.96 kg/m3. It also gave a mass density (283.15 K, 6000 kPa) of 1158.69 ± 0.98 kg/m3, a mass density (283.15 K, 8000 kPa) of 1159.61 ± 0.96 kg/m3 and a mass density (283.15 K, 10000 kPa) of 1160.53 ± 0.96 kg/m3. It also gave a mass density (283.15 K, 12000 kPa) of 1161.43 ± 0.96 kg/m3, a mass density (283.15 K, 14000 kPa) of 1162.34 ± 0.96 kg/m3 and a mass density (283.15 K, 20000 kPa) of 1165.02 ± 0.95 kg/m3. The mass density (283.15 K, 30000 kPa) was 1169.4 ± 0.96 kg/m3, the mass density (283.15 K, 40000 kPa) was 1173.6 ± 0.96 kg/m3 and the mass density (283.15 K, 50000 kPa) was 1177.7 ± 0.96 kg/m3. For the same compound, the mass density (283.15 K, 60000 kPa) was 1181.65 ± 0.97 kg/m3, the viscosity (285.09 K, 4270 kPa) was 449.6 ± 50 mPa·s and the viscosity (285.15 K, 130 kPa) was 420.5 ± 46 mPa·s. The viscosity (285.15 K, 1400 kPa) was 430.2 ± 47 mPa·s, the viscosity (285.15 K, 3170 kPa) was 437 ± 48 mPa·s and the viscosity (285.15 K, 5380 kPa) was 457.2 ± 52 mPa·s. The viscosity (285.15 K, 12640 kPa) was 495.6 ± 54 mPa·s, the viscosity (285.2 K, 5080 kPa) was 447.9 ± 49 mPa·s and the viscosity (285.22 K, 12000 kPa) was 488.4 ± 54 mPa·s. The viscosity (285.23 K, 7090 kPa) was 460.6 ± 51 mPa·s, the viscosity (285.23 K, 10000 kPa) was 481.6 ± 53 mPa·s and the viscosity (285.23 K, 14220 kPa) was 504.9 ± 56 mPa·s. For the same compound, the viscosity (285.25 K, 8290 kPa) was 468.5 ± 52 mPa·s, the mass density (288.15 K, 100 kPa) was 1152.44 ± 0.97 kg/m3 and the mass density (288.15 K, 2000 kPa) was 1153.37 ± 0.96 kg/m3. It also gave a mass density (288.15 K, 4000 kPa) of 1154.32 ± 0.96 kg/m3, a mass density (288.15 K, 6000 kPa) of 1155.11 ± 0.96 kg/m3 and a mass density (288.15 K, 8000 kPa) of 1156.19 ± 0.96 kg/m3. It also gave a mass density (288.15 K, 10000 kPa) of 1157.11 ± 0.96 kg/m3, a mass density (288.15 K, 12000 kPa) of 1158.05 ± 0.96 kg/m3 and a mass density (288.15 K, 14000 kPa) of 1158.97 ± 0.96 kg/m3. It also gave a mass density (288.15 K, 20000 kPa) of 1161.68 ± 0.96 kg/m3, a mass density (288.15 K, 30000 kPa) of 1166.05 ± 0.96 kg/m3 and a mass density (288.15 K, 40000 kPa) of 1170.31 ± 0.96 kg/m3. For the same compound, the mass density (288.15 K, 50000 kPa) was 1174.45 ± 0.97 kg/m3, the mass density (288.15 K, 60000 kPa) was 1178.4 ± 0.97 kg/m3 and the mass density (293.15 K, 100 kPa) was 1148.92 ± 0.96 kg/m3. For the same compound, the mass density (293.15 K, 2000 kPa) was 1149.88 ± 0.97 kg/m3, the mass density (293.15 K, 4000 kPa) was 1150.84 ± 0.96 kg/m3 and the mass density (293.15 K, 6000 kPa) was 1151.81 ± 0.95 kg/m3. For the same compound, the mass density (293.15 K, 8000 kPa) was 1152.76 ± 0.96 kg/m3, the mass density (293.15 K, 10000 kPa) was 1153.7 ± 0.96 kg/m3 and the mass density (293.15 K, 12000 kPa) was 1154.65 ± 0.96 kg/m3. It also gave a mass density (293.15 K, 14000 kPa) of 1155.57 ± 0.96 kg/m3, a mass density (293.15 K, 20000 kPa) of 1158.32 ± 0.96 kg/m3 and a mass density (293.15 K, 30000 kPa) of 1162.74 ± 0.96 kg/m3. It also gave a mass density (293.15 K, 40000 kPa) of 1167.02 ± 0.96 kg/m3, a mass density (293.15 K, 50000 kPa) of 1171.16 ± 0.96 kg/m3 and a mass density (293.15 K, 60000 kPa) of 1175.18 ± 0.96 kg/m3. The viscosity (294.65 K, 14670 kPa) was 285.1 ± 35 mPa·s, the viscosity (294.75 K, 8260 kPa) was 261.3 ± 32 mPa·s and the viscosity (294.75 K, 10200 kPa) was 270.5 ± 33 mPa·s. The viscosity (294.75 K, 12300 kPa) was 278.6 ± 34 mPa·s, the viscosity (294.77 K, 6430 kPa) was 254.4 ± 28 mPa·s and the viscosity (294.85 K, 140 kPa) was 238.3 ± 29 mPa·s. It also gave a viscosity (294.85 K, 760 kPa) of 238.2 ± 29 mPa·s, a viscosity (294.85 K, 2760 kPa) of 242.5 ± 30 mPa·s and a viscosity (294.85 K, 4280 kPa) of 246.6 ± 30 mPa·s. The viscosity (294.91 K, 1460 kPa) was 238.3 ± 29 mPa·s, the mass density (298.15 K, 100 kPa) was 1145.47 ± 0.96 kg/m3 and the mass density (298.15 K, 2000 kPa) was 1146.39 ± 0.96 kg/m3. It also gave a mass density (298.15 K, 4000 kPa) of 1147.43 ± 0.96 kg/m3, a mass density (298.15 K, 6000 kPa) of 1148.36 ± 0.96 kg/m3 and a mass density (298.15 K, 8000 kPa) of 1149.29 ± 0.96 kg/m3. For the same compound, the mass density (298.15 K, 10000 kPa) was 1150.27 ± 0.96 kg/m3, the mass density (298.15 K, 12000 kPa) was 1151.22 ± 0.96 kg/m3 and the mass density (298.15 K, 14000 kPa) was 1152.19 ± 0.96 kg/m3. For the same compound, the mass density (298.15 K, 20000 kPa) was 1154.94 ± 0.96 kg/m3, the mass density (298.15 K, 30000 kPa) was 1159.42 ± 0.95 kg/m3 and the mass density (298.15 K, 40000 kPa) was 1163.75 ± 0.95 kg/m3. For the same compound, the mass density (298.15 K, 50000 kPa) was 1167.96 ± 0.96 kg/m3, the mass density (298.15 K, 60000 kPa) was 1172.02 ± 0.96 kg/m3 and the viscosity (300.25 K, 1630 kPa) was 179.8 ± 21 mPa·s. It also gave a viscosity (300.39 K, 2690 kPa) of 180.5 ± 20 mPa·s, a viscosity (300.42 K, 14380 kPa) of 210.1 ± 24 mPa·s and a viscosity (300.49 K, 4140 kPa) of 184.2 ± 21 mPa·s. The viscosity (300.61 K, 6190 kPa) was 187 ± 21 mPa·s, the viscosity (300.61 K, 12340 kPa) was 202.5 ± 23 mPa·s and the viscosity (300.62 K, 8490 kPa) was 191.3 ± 22 mPa·s. For the same compound, the viscosity (300.68 K, 10400 kPa) was 196.1 ± 22 mPa·s, the viscosity (300.75 K, 1410 kPa) was 175.2 ± 20 mPa·s and the viscosity (300.85 K, 120 kPa) was 168.1 ± 19 mPa·s. The mass density (303.15 K, 100 kPa) was 1141.99 ± 0.96 kg/m3 and the mass density (303.15 K, 2000 kPa) was 1142.93 ± 0.96 kg/m3.
